ChEMBL document CHEMBL4837181 (Eur J Med Chem, 2020)
One block for each compound: values may come before it. The source made the active and inactive calls. No cut-off for these calls is given here.

Legend:
[1] = Change in Cmax in rat at 37 umol/kg, po measured upto 72 hrs by LC-MS/MS analysis; assay type: ADME, organism-based; details: in vivo, at 37 µmol/kg
[2] = Change in AUC (infinity) in rat at 37 umol/kg, po measured upto 72 hrs by LC-MS/MS analysis; assay type: ADME, organism-based; details: in vivo, at 37 µmol/kg
[3] = Change in Cmax in rat at 185 umol/kg, po measured upto 72 hrs by LC-MS/MS analysis; assay type: ADME, organism-based; details: in vivo, at 185 µmol/kg
[4] = Dose normalized AUC (0 to infinity) in rat at 50 mg/kg, po measured upto 72 hrs by LC-MS/MS analysis; assay type: ADME, organism-based; details: in vivo
[5] = Chemical stability of compound in simulated gastric fluid assessed as compound remaining at 5 uM measured after 24 hrs by LC-MS/MS analysis; assay type: ADME, physicochemical; details: read-out: Stabilty
[6] = Chemical stability of compound in PBS buffer assessed as compound remaining at pH 7.4 at 5 uM measured after 6 hrs by LC-MS/MS analysis; assay type: physicochemical; details: read-out: Stabilty
[7] = Chemical stability of compound in saline assessed as compound remaining at 5 uM measured after 24 hrs by LC-MS/MS analysis; assay type: physicochemical; details: read-out: Stabilty
[8] = Change in normalised Cmax in rat at 10 mg/kg, po measured upto 72 hrs by LC-MS/MS analysis; assay type: ADME, organism-based; details: in vivo
[9] = Change in normalised Cmax in rat at 50 mg/kg, po measured upto 72 hrs by LC-MS/MS analysis; assay type: ADME, organism-based; details: in vivo
[10] = Change in normalised AUC (infinity) in rat at 50 mg/kg, po measured upto 72 hrs by LC-MS/MS analysis; assay type: ADME, organism-based; details: in vivo
[11] = Chemical stability of compound in PBS buffer assessed as compound remaining at pH 7.4 at 5 uM measured after 24 hrs by LC-MS/MS analysis; assay type: physicochemical; details: read-out: Stabilty
[12] = Stability in rat plasma assessed as parent compound remaining measured after 2 hrs by LC-MS/MS analysis; assay type: ADME, cell-free; details: read-out: Stabilty
[13] = Stability in human plasma assessed as parent compound remaining measured after 24 hrs by LC-MS/MS analysis; assay type: ADME, cell-free; details: read-out: Stabilty
[14] = Chemical stability of compound in simulated intestinal fluid assessed as compound remaining at 5 uM measured after 24 hrs by LC-MS/MS analysis; assay type: ADME, physicochemical; details: read-out: Stabilty
[15] = Chemical stability of compound in 0.1 N aqueous HCl buffer assessed as compound remaining at pH 1 at 5 uM measured after 1.5 hrs by LC-MS/MS analysis; assay type: physicochemical; details: pH 1, 1.5 h
[16] = Dose normalized AUC (0 to infinity) in rat at 10 mg/kg, po measured upto 72 hrs by LC-MS/MS analysis; assay type: ADME, organism-based; details: in vivo
[17] = Chemical stability of compound in 0.1 N aqueous HCl buffer assessed as compound remaining at pH 1 at 5 uM measured after 24 hrs by LC-MS/MS analysis; assay type: physicochemical; details: pH 1, 24 h
[18] = Chemical stability of compound in simulated intestinal fluid assessed as compound remaining at 5 uM measured after 3 hrs by LC-MS/MS analysis; assay type: ADME, physicochemical; details: read-out: Stabilty
[19] = Dose normalized Cmax in rat at 10 mg/kg, po measured upto 72 hrs by LC-MS/MS analysis; assay type: ADME, organism-based; details: in vivo
[20] = Chemical stability of compound in simulated gastric fluid assessed as compound remaining at 5 uM measured after 1.5 hrs by LC-MS/MS analysis; assay type: ADME, physicochemical; details: read-out: Stabilty
[21] = Stability in human plasma assessed as parent compound remaining measured after 6 hrs by LC-MS/MS analysis; assay type: ADME, cell-free; details: read-out: Stabilty
[22] = Dose normalized Cmax in rat at 50 mg/kg, po measured upto 72 hrs by LC-MS/MS analysis; assay type: ADME, organism-based; details: in vivo
[23] = Stability in mouse plasma assessed as parent compound remaining measured after 2 hrs by LC-MS/MS analysis; assay type: ADME, cell-free; details: read-out: Stabilty
[24] = Change in normalised AUCinfinity in rat at 10 mg/kg, po measured upto 72 hrs by LC-MS/MS analysis; assay type: ADME, organism-based; details: in vivo
B16-F10 = experiment: Antitumor activity against mouse B16-F10 cells implanted in C57BL/6 mouse assessed as reduction in tumor size at >= 287 micromol/kg, po BID administered from day 6 to day 11 and measured on day 11 by caliper method; assay type: functional, organism-based; details: dose micromol/kg >=287
[25] = Change in Cmax in cynomolgus monkey at 92 umol/kg, po measured after 0.083 to 48 hrs by LC-MS/MS analysis; assay type: ADME, organism-based, Macaca fascicularis; details: in vivo, at 92 µmol/kg, time 0.083-48 hrs
[26] = Change in AUC(infinity) in cynomolgus monkey at 825 umol/kg, po measured after 0.083 to 48 hrs by LC-MS/MS analysis; assay type: ADME, organism-based, Macaca fascicularis; details: in vivo, at 825 µmol/kg, time 0.083-48 hrs
[27] = Change in AUC(infinity) in cynomolgus monkey at 275 umol/kg, po measured after 0.083 to 48 hrs by LC-MS/MS analysis; assay type: ADME, organism-based, Macaca fascicularis; details: in vivo, at 275 µmol/kg, time 0.083-48 hrs
[28] = Change in Cmax in rat at 500 umol/kg, po measured upto 72 hrs by LC-MS/MS analysis; assay type: ADME, organism-based; details: in vivo, at 500 µmol/kg
[29] = Change in AUC(infinity) in cynomolgus monkey at 92 umol/kg, po measured after 0.083 to 48 hrs by LC-MS/MS analysis; assay type: ADME, organism-based, Macaca fascicularis; details: in vivo, at 92 µmol/kg, time 0.083-48 hrs
[30] = Change in Cmax in cynomolgus monkey at 275 umol/kg, po measured after 0.083 to 48 hrs by LC-MS/MS analysis; assay type: ADME, organism-based, Macaca fascicularis; details: in vivo, at 275 µmol/kg, time 0.083-48 hrs
[31] = Change in Cmax in cynomolgus monkey at 825 umol/kg, po measured after 0.083 to 48 hrs by LC-MS/MS analysis; assay type: ADME, organism-based, Macaca fascicularis; details: in vivo, at 825 µmol/kg, time 0.083-48 hrs
[32] = Change in AUC(infinity) in rat at 500 umol/kg, po measured upto 72 hrs by LC-MS/MS analysis; assay type: ADME, organism-based; details: in vivo, at 500 µmol/kg
[33] = Half life in female cynomolgus monkey at 675 mg/kg, po measured on day 1; assay type: ADME, organism-based, Macaca fascicularis; details: in vivo
[34] = Drug accumulation in monkey at 75 to 375 mg/kg, po BID; assay type: ADME, organism-based, Macaca mulatta; details: rhesus monkey, in vivo, dose 75-375 mg/kg
[35] = Cmax in female cynomolgus monkey at 675 mg/kg, po measured on day 1; assay type: ADME, organism-based, Macaca fascicularis; set-up: route oral, dose 675 mg/kg; details: in vivo
[36] = Tmax in male cynomolgus monkey at 225 mg/kg, po measured on day 1; assay type: ADME, organism-based, Macaca fascicularis; details: in vivo
[37] = AUC (0 to 24 hrs) in male cynomolgus monkey at 675 mg/kg, po measured on day 1; assay type: ADME, organism-based, Macaca fascicularis; set-up: time < 24 hr, route oral, dose 675 mg/kg; details: in vivo
[38] = Tmax in male cynomolgus monkey at 150 mg/kg, po BID measured on day 8; assay type: ADME, organism-based, Macaca fascicularis; details: in vivo
[39] = Tmax in female cynomolgus monkey at 375 mg/kg, po BID measured on day 8; assay type: ADME, organism-based, Macaca fascicularis; details: in vivo
[40] = Tmax in male cynomolgus monkey at 675 mg/kg, po measured on day 1; assay type: ADME, organism-based, Macaca fascicularis; details: in vivo
[41] = AUC (0 to 24 hrs) in female cynomolgus monkey at 375 mg/kg, po BID measured on day 8; assay type: ADME, organism-based, Macaca fascicularis; set-up: time < 24 hr, route oral, dose 375 mg/kg; details: in vivo
[42] = Cmax in male cynomolgus monkey at 675 mg/kg, po measured on day 1; assay type: ADME, organism-based, Macaca fascicularis; set-up: route oral, dose 675 mg/kg; details: in vivo
[43] = Drug accumulation in rat at 100 to 900 mg/kg, po BID; assay type: ADME, organism-based; details: in vivo, dose 100-900 mg/kg
[44] = Protein binding in Beagle dog plasma; assay type: ADME, cell-free, Canis lupus familiaris; details: read-out: PPB
[45] = Cmax in male cynomolgus monkey at 150 mg/kg, po BID measured on day 8; assay type: ADME, organism-based, Macaca fascicularis; set-up: route oral, dose 150 mg/kg; details: in vivo
[46] = Half life in male cynomolgus monkey at 675 mg/kg, po measured on day 1; assay type: ADME, organism-based, Macaca fascicularis; details: in vivo
[47] = Cmax in female cynomolgus monkey at 375 mg/kg, po BID measured on day 8; assay type: ADME, organism-based, Macaca fascicularis; set-up: route oral, dose 375 mg/kg; details: in vivo
[48] = AUC (0 to 24 hrs) in male cynomolgus monkey at 225 mg/kg, po measured on day 1; assay type: ADME, organism-based, Macaca fascicularis; set-up: time < 24 hr, route oral, dose 225 mg/kg; details: in vivo, 24 h
[49] = Cmax in male cynomolgus monkey at 225 mg/kg, po measured on day 1; assay type: ADME, organism-based, Macaca fascicularis; set-up: route oral, dose 225 mg/kg; details: in vivo
[50] = Tmax in female cynomolgus monkey at 675 mg/kg, po measured on day 1; assay type: ADME, organism-based, Macaca fascicularis; details: in vivo
[51] = Protein binding in human plasma; assay type: ADME, cell-free; details: read-out: PPB
[52] = AUC (0 to 24 hrs) in male cynomolgus monkey at 150 mg/kg, po BID measured on day 8; assay type: ADME, organism-based, Macaca fascicularis; set-up: time < 24 hr, route oral, dose 150 mg/kg; details: in vivo
[53] = AUC (0 to 24 hrs) in female cynomolgus monkey at 675 mg/kg, po measured on day 1; assay type: ADME, organism-based, Macaca fascicularis; set-up: time < 24 hr, route oral, dose 675 mg/kg; details: in vivo

SMILES: CCOC(=O)[C@@H](Cc1cn(C)c2ccccc12)NC(=O)[C@@H](N)CC(C)C.O=P(O)(O)O
- Activity [1]: 84%
- Activity [2]: 61%
- Activity [3]: 69%

- AUC/dose [4]: 2988 µM·h
- remaining at 24 h, 5 µM [5]: 85%
- remaining at 6 h, 5 µM [6]: 94%
- remaining at 24 h, 5 µM [7]: 100%
- Activity [8]: 27%
- Activity [9]: 143%
- Activity [10]: 126%
- remaining at 24 h, 5 µM [11]: 52%
- remaining at 2 h [12]: 0%
- remaining at 24 h [13]: 35%
- remaining at 24 h, 5 µM [14]: 0%
- Stabilty [15]: 59%
- AUC/dose [16]: 454 µM·h
- Stabilty [17]: 100%
- remaining at 3 h, 5 µM [18]: 64%
- Cmax/dose [19]: 22000 nM
- remaining at 1.5 h, 5 µM [20]: 83%
- remaining at 6 h [21]: 93%
- Cmax/dose [22]: 66000 nM
- remaining at 2 h [23]: 0%
- Activity [24]: -11%
SMILES: CCOC(=O)[C@H](N)Cc1cn(C)c2ccccc12.Cl

SMILES: CCOC(=O)[C@@H](Cc1cn(C)c2ccccc12)NC(=O)[C@@H](N)CC(C)C
- Activity (B16-F10): Active

- Activity [25]: 305%
- Activity [26]: 369%
- Activity [27]: 393%
- Activity [28]: 59%
- Activity [1]: 21%
- Activity [29]: 136%
- Activity [2]: 13%
- Activity [30]: 402%
- Activity [31]: 411%
- Activity [3]: 152%
- Activity [32]: 49%
SMILES: CCOC(=O)[C@@H](Cc1cn(C)c2ccccc12)NC(=O)[C@@H](N)CCSC.Cl

- Activity [1]: 37%
- Activity [2]: 46%
- Activity [3]: 153%
SMILES: Cn1cc(C[C@@H](N)C(=O)OCC(O)CO)c2ccccc21.O=P(O)(O)O (stereo partly specified)

- half-life [33]: 8.2 h
- Drug metabolism [34]: Metabolite_Notdetected
- Cmax [35]: 1580 nM
- Tmax [36]: 2 h
- AUC [37]: 2.88 µM·h
- Tmax [38]: 1 h
- Tmax [39]: 2 h
- Tmax [40]: 1 h
- AUC at 24 h [41]: 0.703 µM·h
- Cmax [42]: 1760 nM
- Drug metabolism [43]: Metabolite_Notdetected
- fraction unbound [44]: > 0.5
- Cmax [45]: 192 nM
- half-life [46]: 3.7 h
- Cmax [47]: 308 nM
- AUC [48]: 0.858 µM·h
- Cmax [49]: 353 nM
- Tmax [50]: 1.5 h
- fraction unbound [51]: > 0.5
- AUC at 24 h [52]: 0.0806 µM·h
- AUC [53]: 3.61 µM·h
SMILES: CC(C)C[C@H](N)C(=O)N[C@H](Cc1cn(C)c2ccccc12)C(=O)O

- AUC/dose [4]: 1028 µM·h
- Activity [9]: 4%
- Activity [10]: -22%
- remaining at 2 h [12]: 0%
- Cmax/dose [22]: 28000 nM
- remaining at 2 h [23]: 0%
SMILES: Cl.Cn1cc(C[C@@H](N)C(=O)OCc2ccccc2)c2ccccc21
